# From US20110086759A1, “CHEMICAL COMPOUNDS” (SYNGENTA CROP PROTECTION, INC., priority 2007, published 2011)
# Assays:
# Assay type in all cases: in vivo
# [1] = system: Echinochloa crus-galli (ECHCG); test: Post-emergence biological efficacy, glasshouse pot test; details: 312 h, post-emergence, 1,000 g/ha, evaluated after 13 days (100=total damage; 0=no damage), read-out: Percentage damage caused to weed species, ECHCG
# Method in brief: (§1)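 Scored 13 days after spraying on a 0 (no damage) to 100 (total damage) scale. Treatment was a post-emergence spray at 1000 or 250 g/ha, from acetone/water 50:50 plus 0.5% Tween 20, onto 8-day-old plants in soil pots. Growth at 24/16° C, 14 h photoperiod, 65% humidity, watered twice daily.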
# [2] = system: Setaria faberi (SETFA); test: as above; details: 312 h, post-emergence, 1,000 g/ha, evaluated after 13 days (100=total damage; 0=no damage), read-out: Percentage damage caused to weed species, SETFA
# Method in brief: as §1
# [3] = system: Amaranthus retoflexus (AMARE); test: as above; details: Amaranthus retroflexus, 312 h; post-emergence, 1,000 g/ha, evaluated after 13 days (100=total damage; 0=no damage); read-out: Percentage damage caused to weed species, AMARE
# Method in brief: as §1
# [4] = system: Solanum nigrum (SOLNI); test: as above; details: 312 h, post-emergence, 1,000 g/ha, evaluated after 13 days (100=total damage; 0=no damage), read-out: Percentage damage caused to weed species, SOLNI
# Method in brief: as §1
# [5] = system: Alopecurus myosuroides (ALOMY); test: as above; details: 312 h, post-emergence, 1,000 g/ha, evaluated after 13 days (100=total damage; 0=no damage), read-out: Percentage damage caused to weed species, ALOMY
# Method in brief: as §1
# [6] = system: Ipomea hederaceae (IPOHE); test: as above; details: Ipomoea hederacea, 312 h; post-emergence, 1,000 g/ha, evaluated after 13 days (100=total damage; 0=no damage); read-out: Percentage damage caused to weed species, IPOHE
# Method in brief: as §1
# [7] = system: Echinochloa crus-galli (ECHCG); test: Pre-emergence biological efficacy, glasshouse pot test; details: 312 h, pre-emergence, 1,000 g/ha, evaluated after 13 days (100=total damage; 0=no damage), read-out: Percentage damage ECHCG
# Method in brief: (§2)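 Damage was rated on a 0–100 scale 13 days after treatment, with plants kept at 24/16° C, 14 h light and 65% humidity. The pre-emergence spray, at 1000 or 250 g/ha in acetone/water 50:50 with 0.5% Tween 20, was applied one day after sowing.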
# [8] = system: Setaria faberi (SETFA); test: as above; details: 312 h, pre-emergence, 1,000 g/ha, evaluated after 13 days (100=total damage; 0=no damage), read-out: Percentage damage SETFA
# Method in brief: as §2
# [9] = system: Amaranthus retoflexus (AMARE); test: as above; details: Amaranthus retroflexus, 312 h; pre-emergence, 1,000 g/ha, evaluated after 13 days (100=total damage; 0=no damage); read-out: Percentage damage AMARE
# Method in brief: as §2
# [10] = system: Solanum nigrum (SOLNI); test: as above; details: 312 h, pre-emergence, 1,000 g/ha, evaluated after 13 days (100=total damage; 0=no damage), read-out: Percentage damage SOLNI
# Method in brief: as §2
# [11] = system: Alopecurus myosuroides (ALOMY); test: as above; details: 312 h, pre-emergence, 1,000 g/ha, evaluated after 13 days (100=total damage; 0=no damage), read-out: Percentage damage ALOMY
# Method in brief: as §2
# [12] = system: Ipomea hederaceae (IPOHE); test: as above; details: Ipomoea hederacea, 312 h; pre-emergence, 1,000 g/ha, evaluated after 13 days (100=total damage; 0=no damage); read-out: Percentage damage IPOHE
# Method in brief: as §2
Compound,pest or weed control at 1000 g/ha [1] [%],pest or weed control at 1000 g/ha [2] [%],pest or weed control at 1000 g/ha [3] [%],pest or weed control at 1000 g/ha [4] [%],pest or weed control at 1000 g/ha [5] [%],pest or weed control at 1000 g/ha [6] [%],pest or weed control at 1000 g/ha [7] [%],pest or weed control at 1000 g/ha [8] [%],pest or weed control at 1000 g/ha [9] [%],pest or weed control at 1000 g/ha [10] [%],pest or weed control at 1000 g/ha [11] [%],pest or weed control at 1000 g/ha [12] [%]
"COC(=O)c1nc(C2CC2)nc(NCc2cccnc2)c1Cl [Compound 4-156, 5-Chloro-2-cyclopropyl-6-methoxycarbonyl-4-(pyrid-3-ylmethyl-amino)pyrimidine]",50,70,100,90,30,70,0,0,50,30,0,80
"COC(=O)c1nc(C2CC2)nc(NCc2ccc(C(F)(F)F)nc2)c1Cl [Compound 4-159, 5-Chloro-2-cyclopropyl-6-methoxycarbonyl-4-(2-trifluoromethyl-pyrid-5-yl-methyl-amino)-pyrimidine]",80,70,90,80,30,80,30,0,0,20,10,70
"COC(=O)c1nc(C2CC2)nc(NCc2ccncc2)c1Cl [Compound 4-160, 5-Chloro-2-cyclopropyl-6-methoxycarbonyl-4-(pyrid-4-yl-methyl-amino)pyrimidine]",70,80,100,80,40,90,60,50,70,90,20,100
"COC(=O)c1nc(C2CC2)nc(NCc2cc3cc(Br)ccc3o2)c1Cl [Compound 4-164, 4-(5-Bromo-benzofuran-2-yl)methylamino-5-chloro-2-cyclopropyl-6-methoxycarbonyl-pyrimidine]",60,70,100,100,30,80,30,30,50,50,30,100
"COC(=O)c1nc(C2CC2)nc(NCc2nc3ccccc3s2)c1Cl [Compound 4-168, 4-(Benzothiazol-2-ylmethylamino)-5-chloro-2-cyclopropyl-6-methoxycarbonyl-pyrimidine]",40,60,90,70,30,60,20,0,20,40,20,50
